Results taken from patent US20050203110A1, “Mitotic kinesin inhibitors” (priority 2002, published 2005).

Molecular target: T1, human KSP motor domain (KSP(367H)) (Homo sapiens, UniProt P52732)
T1 construct: were used to amplify the motor domain and the neck linker region; made in house; host or cells: E. coli BL21 (DE3), pRSETa
T1 sequence (P52732 18-359 limits assumed): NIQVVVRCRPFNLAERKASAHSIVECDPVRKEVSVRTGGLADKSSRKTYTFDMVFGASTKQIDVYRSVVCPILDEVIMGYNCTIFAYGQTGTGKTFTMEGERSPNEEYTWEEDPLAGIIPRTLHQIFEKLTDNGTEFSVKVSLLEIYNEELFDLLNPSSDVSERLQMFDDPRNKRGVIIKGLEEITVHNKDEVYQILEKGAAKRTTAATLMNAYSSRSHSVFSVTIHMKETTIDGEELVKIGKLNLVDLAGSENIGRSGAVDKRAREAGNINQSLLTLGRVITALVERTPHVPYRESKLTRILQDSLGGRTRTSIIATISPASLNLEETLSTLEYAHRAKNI
Assay: Kinesin ATPase In Vitro Assay
Assay type: biochemical
Conditions: kinesin motor domain with microtubules, 1 mM ATP, 23° C.; free phosphate by quinaldine red/ammonium molybdate, absorbance 540 nm
Source text: I. Kinesin ATPase In Vitro Assay
Cloning and Expression of Human Poly-Histidine Tagged KSP Motor Domain (KSP(367H))
Plasmids for the expression of the human KSP motor domain construct were cloned by PCR using a pBluescript full length human KSP construct (Blangy et al., Cell, vol. 83, pp1159-1169, 1995) as a template. The N-terminal primer 5′-[…] (SEQ.ID.NO.: 1) and the C-terminal primer 5′-[…] […] (SEQ.ID.NO.: 2) were used to amplify the motor domain and the neck linker region. The PCR products were digested with AseI and XhoI, ligated into the NdeI/XhoI digestion product of pRSETa (Invitrogen) and transformed into E. coli BL21 (DE3).
Cells were grown at 37° C. to an OD600 of 0.5. After cooling the culture to room temperature expression of KSP was induced with 100 μM IPTG and incubation was continued overnight. Cells were pelleted by centrifugation and washed once with ice-cold PBS. Pellets were flash-frozen and stored −80° C.
Cell pellets were thawed on ice and resuspended in lysis buffer (50 mM K-HEPES, pH 8.0, 250 mM KCl, 0.1% Tween, 10 mM imidazole, 0.5 mM Mg-ATP, 1 mM PMSF, 2 mM benzimidine, 1× complete protease inhibitor cocktail (Roche)). Cell suspensions were incubated with 1 mg/ml lysozyme and 5 mM β-mercaptoethanol on ice for 10 minutes, followed by sonication (3×30 sec). All subsequent procedures were performed at 4° C. Lysates were centrifuged at 40,000×g for 40 minutes. Supernatants were diluted and loaded onto an SP Sepharose column (Pharmacia, 5 ml cartridge) in buffer A (50 mM K-HEPES, pH 6.8, 1 mM MgCl2, 1 mM EGTA, 10 μM Mg-ATP, 1 mM DTT) and eluted with a 0 to 750 mM KCl gradient in buffer A. Fractions containing KSP were pooled and incubated with Ni-NTA resin (Qiagen) for one hour. The resin was washed three times with buffer B (Lysis buffer minus PMSF and protease inhibitor cocktail), followed by three 15-minute incubations and washes with buffer B. Finally, the resin was incubated and washed for 15 minutes three times with buffer C (same as buffer B except for pH 6.0) and poured into a column. […]
The kinesin motor domain is incubated with microtubules, 1 mM ATP (1:1 MgCl2:Na-ATP), and compound at 23° C. in buffer containing 80 mM K-HEPES (pH 7.0), 1 mM EGTA, 1 mM DTT, 1 mM MgCl2, and 50 mM KCl. […] Free phosphate from the ATP hydrolysis reaction is measured via a quinaldine red/ammonium molybdate assay by adding 150 μl of quench C buffer containing a 2:1 ratio of quench A:quench B. Quench A contains 0.1 mg/ml quinaldine red and 0.14% polyvinyl alcohol; quench B contains 12.3 mM ammonium molybdate tetrahydrate in 1.15 M sulfuric acid. The reaction is incubated for 10 minutes at 23° C., and the absorbance of the phospho-molybdate complex is measured at 540 nm.

IC50, ≤ 50 µM:
CCC(c1nc2c(c(=O)n1Cc1ccccc1)CCCN2)N(CCN(C)C)C(=O)c1ccc(Br)cc1 (stereo not shown) [Compound 2-2, N-[1-(3-benzyl-4-oxo-3,4,5,6,7,8-hexahydropyrido[2,3-d]pyrimidin-2-yl)propyl]4-bromo-N-[2-(dimethylamino)ethyl]benzamide]
CCC(c1nc2cnccc2c(=O)n1Cc1ccccc1)N(CCN(C)C)C(=O)c1ccc(Br)cc1 (racemic) [Compound 3-7, 2-[1′-(N-4-bromobenzoyl)-(N,N-dimethylethylenediamino)propyl]-3-benzyl-pyrido[3,4-d]pyrimidin-4(3H)-one]
CCC(c1nc2ncccc2c(=O)n1Cc1ccccc1)N(CCN(C)C)C(=O)c1ccc(Br)cc1 (stereo not shown) [Compound 1-6, N-[1-(3-benzyl-4-oxo-3,4-dihydropyrido[2,3-d]pyrimidin-2-yl)propyl]-4-bromo-N-[2-(dimethylamino)ethyl]benzamide]
CCC(c1nc2cccnc2c(=O)n1Cc1ccccc1)N(CCN(C)C)C(=O)c1ccc(Br)cc1 (stereo not shown) [Compound 5-6, N-[1-(3-benzyl-4-oxo-3,4-dihydropyrido[3,2-d]pyrimidin-2-yl)propyl]-4-bromo-N-[2-(dimethylamino)ethyl]benzamide]
